Measured values taken from ChEMBL document CHEMBL3885861, “Open TG-GATES”.

Organism: Rattus norvegicus
Assay: Open TG-GATES - Regimen: Daily Repeat
Assay type: toxicity, organism-based, Sprague-Dawley
Set-up: regimen Daily Repeat, gender Male, age 6 weeks
Conditions: in vivo, po, 20 mg/kg, route gavage, dose level Middle; for APTT / Bas / Eos / Fbg / Hb / Ht / Lym / MCH / MCHC / MCV / Mono / Neu / PT / Plat / RBC / Ret / WBC: tissue Blood; for KIDNEY_L / KIDNEY_R / KIDNEY_TOTAL: tissue Kidney; for LIVER: tissue Liver; for A/G / ALP / ALT / AST / BUN / CRE / Ca / Cl / DBIL / GLC / IP / K / LDH / Na / PL / RALB / TBIL / TC / TG / TP / gamma-GTP: tissue Plasma

## CC(C)NNC(=O)c1ccncc1 [IPRONIAZID]
72 h, time 3 day
  TERMINAL_BW: 194.3 g
  APTT: 22.2 s
  Bas: 0%
  Eos: 1%
  Fbg: 299.2 mg/dL
  Hb: 14.1 g/dL
  Ht: 40.8%
  Lym: 78.8%
  MCH: 20.7 pg
  MCHC: 34.6%
  MCV: 59.9 fL
  Mono: 2.4%
  Neu: 17.6%
  PT: 16.5 s
  Plat: 134 x10_4/uL
  RBC: 682.6 x10_4/ul
  Ret: 5.9%
  WBC: 72.4 x10_2/uL
  KIDNEY_L: 0.8 g
  KIDNEY_R: 0.9 g
  KIDNEY_TOTAL: 1.7 g
  LIVER: 8.7 g
  A/G: 1.2
  ALP: 1696.2 IU/L
  ALT: 42 IU/L
  AST: 74 IU/L
  BUN: 19.2 mg/dL
  CRE: 0.2 mg/dL
  Ca: 10.5 mg/dL
  Cl: 108.2 meq/L
  DBIL: 0.002 mg/dL
  GLC: 175 mg/dL
  IP: 7.1 mg/dL
  K: 4.4 meq/L
  LDH: 262 IU/L
  Na: 143.2 meq/L
  PL: 150.8 mg/dL
  RALB: 3.3 g/dL
  TBIL: 0.01 mg/dL
  TC: 80.6 mg/dL
  TG: 105.2 mg/dL
  TP: 5.9 g/dL
  gamma-GTP: 1 IU/L
[…], time 7 day
  TERMINAL_BW: 222.7 g
  APTT: 22.7 s
  Bas: 0%
  Eos: 1%
  Fbg: 311.4 mg/dL
  Hb: 13.3 g/dL
  Ht: 37.6%
  Lym: 82.2%
  MCH: 20.5 pg
  MCHC: 35.4%
  MCV: 57.8 fL
  Mono: 1.8%
  Neu: 13.8%
  PT: 15.4 s
  Plat: 122.6 x10_4/uL
  RBC: 651.6 x10_4/ul
  Ret: 4.2%
  WBC: 73.7 x10_2/uL
  KIDNEY_L: 0.9 g
  KIDNEY_R: 0.9 g
  KIDNEY_TOTAL: 1.8 g
  LIVER: 9.4 g
  A/G: 1.2
  ALP: 1298.6 IU/L
  ALT: 36.2 IU/L
  AST: 75 IU/L
  BUN: 18.6 mg/dL
  CRE: 0.2 mg/dL
  Ca: 10.4 mg/dL
  Cl: 107.6 meq/L
  DBIL: 0.004 mg/dL
  GLC: 179.4 mg/dL
  IP: 6.6 mg/dL
  K: 4.2 meq/L
  LDH: 206.4 IU/L
  Na: 142.2 meq/L
  PL: 154.8 mg/dL
  RALB: 3.1 g/dL
  TBIL: 0.006 mg/dL
  TC: 88.6 mg/dL
  TG: 89 mg/dL
  TP: 5.7 g/dL
  gamma-GTP: 1.4 IU/L
[…], time 14 day
  TERMINAL_BW: 259.4 g
  APTT: 20.5 s
  Bas: 0%
  Eos: 0.6%
  Fbg: 320.6 mg/dL
  Hb: 12.5 g/dL
  Ht: 36.8%
  Lym: 76%
  MCH: 19.9 pg
  MCHC: 34%
  MCV: 58.7 fL
  Mono: 2.2%
  Neu: 20.4%
  PT: 16.1 s
  Plat: 122.7 x10_4/uL
  RBC: 628 x10_4/ul
  Ret: 8.9%
  WBC: 105.3 x10_2/uL
  KIDNEY_L: 1 g
  KIDNEY_R: 1 g
  KIDNEY_TOTAL: 2.1 g
  LIVER: 10.8 g
  A/G: 1.1
  ALP: 1067 IU/L
  ALT: 40.2 IU/L
  AST: 70.8 IU/L
  BUN: 18.2 mg/dL
  CRE: 0.2 mg/dL
  Ca: 10.4 mg/dL
  Cl: 106.6 meq/L
  DBIL: 0.004 mg/dL
  GLC: 182.6 mg/dL
  IP: 6.7 mg/dL
  K: 4.3 meq/L
  LDH: 154.6 IU/L
  Na: 142.2 meq/L
  PL: 153.8 mg/dL
  RALB: 3 g/dL
  TBIL: 0.026 mg/dL
  TC: 85 mg/dL
  TG: 118.6 mg/dL
  TP: 5.7 g/dL
  gamma-GTP: 1.8 IU/L
[…], time 28 day
  TERMINAL_BW: 331.2 g
  APTT: 24 s
  Bas: 0%
  Eos: 1%
  Fbg: 313.2 mg/dL
  Hb: 13.5 g/dL
  Ht: 39%
  Lym: 80.8%
  MCH: 20.6 pg
  MCHC: 34.5%
  MCV: 59.6 fL
  Mono: 1.2%
  Neu: 16.6%
  PT: 16.3 s
  Plat: 108.1 x10_4/uL
  RBC: 654.8 x10_4/ul
  Ret: 6.7%
  WBC: 133.5 x10_2/uL
  KIDNEY_L: 1.2 g
  KIDNEY_R: 1.2 g
  KIDNEY_TOTAL: 2.4 g
  LIVER: 12.6 g
  A/G: 1.1
  ALP: 1143.8 IU/L
  ALT: 37.2 IU/L
  AST: 68 IU/L
  BUN: 17.4 mg/dL
  CRE: 0.2 mg/dL
  Ca: 10.4 mg/dL
  Cl: 106.2 meq/L
  DBIL: 0 mg/dL
  GLC: 184.2 mg/dL
  IP: 6.9 mg/dL
  K: 4.2 meq/L
  LDH: 157.6 IU/L
  Na: 141.8 meq/L
  PL: 138.4 mg/dL
  RALB: 3.1 g/dL
  TBIL: 0.038 mg/dL
  TC: 68.4 mg/dL
  TG: 122.6 mg/dL
  TP: 5.9 g/dL
  gamma-GTP: 2.2 IU/L
